These results are taken from patent US8252931B2, “Thiazolo[5,4-B]pyridine glucokinase activators” (Novartis AG, priority 2005, dated 2012).

Read-outs that look alike come from different tables or passages of the source.

The target in one test is T1, recombinant GST-GK (Homo sapiens, UniProt P35557).
T1 sequence (P35557 1-465): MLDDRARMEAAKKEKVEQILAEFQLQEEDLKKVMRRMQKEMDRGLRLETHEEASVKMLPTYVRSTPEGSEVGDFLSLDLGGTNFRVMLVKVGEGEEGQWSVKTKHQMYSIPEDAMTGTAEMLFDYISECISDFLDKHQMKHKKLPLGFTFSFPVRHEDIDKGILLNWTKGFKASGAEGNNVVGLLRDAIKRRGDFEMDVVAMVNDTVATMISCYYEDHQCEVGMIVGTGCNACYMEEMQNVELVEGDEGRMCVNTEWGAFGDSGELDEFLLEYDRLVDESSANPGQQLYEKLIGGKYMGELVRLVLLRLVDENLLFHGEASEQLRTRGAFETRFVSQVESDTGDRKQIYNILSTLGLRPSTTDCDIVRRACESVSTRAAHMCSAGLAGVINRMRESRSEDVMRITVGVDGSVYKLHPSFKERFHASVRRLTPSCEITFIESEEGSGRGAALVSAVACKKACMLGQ
Put plainly: activation of recombinant GST-GK in vitro (primary enzyme assay). The test is classed as biochemical. The settings on record: concentration of compound that produces a 50% increase in the activity of GK. The source says: For example, the glucokinase activation in vitro may be determined by measuring the activation of recombinant GST-GK by a compound of the present invention in the absence or the presence of GKRP, a 68,000 Da protein inhibitor of GK. In these assays, formation of glucose-6-phosphate is coupled directly to the formation of thio-NADH. GST-GK catalyzes the reaction of glucose and Mg-ATP to produce glucose-6-phosphate and ADP. Glucose-6-phosphate dehydrogenase (G6PDH) reduces thionicotinamide (thio-NAD) to thio-NADH. The assay measures the formation of thio-NADH at […].
The basic GK assay components are as follows: 25 mM HEPES (pH 7.1), 25 mM KCl, 2.5 mM MgCl2, 1 mM ATP (Sigma A-5394), 1 mM DTT, 1 mM thio-NAD (Sigma T-7375), 80 units/mL G6PDH (Sigma G-5885), 10 mM glucose and 110 nM GST-GK. For assessing reversal of GK inhibition by GKRP, 20 μM Fructose-6-phosphate (F-6-P) and 370 nM recombinant GKRP are added to these assay components. Fructose-1-phosphate (F-1-P) at 1 μM is used as a control in the GK/GKRP assay. F-1-P reverses inhibition of GST-GK by GKRP.
The assay is done in standard, 96-well, round-bottom plates (Corning) and the total assay volume is 25 μL. Test compounds are serially diluted into 100% DMSO and 0.5 μL of diluted compound in 100% DMSO is added to the assay plate. Assay reagents (24.5 μL) are added using a Zymark robotic platform. Buffer, containing HEPES, MgCl2, KCl, thio-NAD, G6PDH, glucose and GST-GK, are added (5 μL) using the Zymark 8-channel hand pipet. For the GK/GKRP assay, GKRP and F-6-P are also included. The reaction is then initiated by adding 19.5 μL of buffer containing HEPES, MgCl2, KCl, DTT and ATP using the Zymark Reagent Addition Station/Reagent Addition Module. The plates are read kinetically over 10 min at 25° C. using a SpectraMax Plus microplate spectrophotometer (Molecular Devices, Sunnyvale, Calif.) to monitor the increase in optical density at 405 nm. The GK activity in wells containing test compounds is compared with activity in DMSO control wells. The concentration of compound that produces a 50% increase in the activity of GK is calculated and expressed as EC50.

Another test relates to DIO mice. Put plainly: glucokinase activation in vivo: oral glucose tolerance test in DIO mice. The following applies: oral (po) dosing; different timepoints during the oral glucose tolerance test; statistically significant. The source says:
The glucokinase activation in vivo may be determined as follows:
Male C57BL mice (Jackson Lab, Bar Harbor, Me.) are housed 2 per cage in a reversed light cycle room (light on from 8:00 p.m. to 8:00 a.m.) and given access to food and water ad libitum. To induce DIO, the mice are given a high fat diet (D12492 with 60% caloric intake from fat, Research Diets, New Brunswick, N.J.) from 4 weeks of age and maintained on the diet before being used. The DIO mice are used at 25 weeks of age. On the day of the study, animals are fasted at 7:30 a.m. Body weight measurement and basal blood sample collection are conducted at 10:00 a.m. Plasma glucose values are then determined. Animals are assigned into five groups (n=7/group) with the means of plasma glucose matched among the groups. At 10:30 a.m. animals are dosed with vehicle (water) or compound in vehicle with a dose volume of 5 ml/kg. The test compound is given at 3, 10, 30, or 100 mg/kg. One hour after vehicle or compound dosing, a blood sample (at 0 min) is taken followed by an oral glucose tolerance test (OGTT) at 1 g/kg (20% glucose in water) and a dose volume of 5 ml/kg. […] Plasma glucose concentrations are determined using a glucose meter (Ascensia Elite, Bayer Corp., Mishawaka, Ind.). […] Plasma insulin levels are determined by Luminex assay using Mouse Endocrine Lincoplex kit (Linco Research, Inc., St. Charles, Mo.). […]

[1] abbreviates: read-out: EC50 in primary enzyme assay.

On to `COc1ccc2nc(NC(=O)[C@H](CC3CCCC3)c3ccc(S(=O)(=O)N(CCC(=O)O)Cc4ccccc4)cc3)sc2n1` [Example 1, 3-(Benzyl-{4-[(R)-2-cyclopentyl-1-(5-methoxy-thiazolo[5,4-b]pyridin-2-ylcarbamoyl)-ethyl]-benzenesulfonyl}-amino)-propionic acid], for which the EC50 at recombinant GST-GK (setting [1]) was 270 nM; on recombinant GST-GK (read-out: EC50 in the in vitro assay measuring the activation of recombinant GST-GK), about 271 nM. Also, in the test with DIO mice, the reductions in glucose is given as 38-53%. With `COc1ccc(CN(CCC(=O)O)S(=O)(=O)c2ccc([C@@H](CC3CCCC3)C(=O)Nc3nc4ccc(OC)nc4s3)cc2)cc1` [Example 4-21, 3-[{4-[(R)-2-Cyclopentyl-1-(5-methoxy-thiazolo[5,4-b]pyridin-2-ylcarbamoyl)-ethyl]-benzenesulfonyl}-(4-methoxy-benzyl)-amino]-propionic acid], the EC50 at recombinant GST-GK (setting [1]) was found to be 920 nM. As to `COc1ccc2nc(NC(=O)[C@H](CC3CCCC3)c3ccc(S(=O)(=O)N(CCC(=O)O)Cc4cc5ccccc5o4)cc3)sc2n1` [Example 3, 3-(Benzofuran-2-ylmethyl-{4-[(R)-2-cyclopentyl-1-(5-methoxy-thiazolo[5,4-b]pyridin-2-ylcarbamoyl)-ethyl]-benzenesulfonyl}-amino)-propionic acid], the EC50 at recombinant GST-GK (setting [1]) amounted to 220 nM.

`COCCN(CCC(=O)O)S(=O)(=O)c1ccc(C(CC2CCCC2)C(=O)Nc2nncs2)cc1` (stereo not drawn) [Example 2, 3-[{4-[2-Cyclopentyl-1-([1,3,4]thiadiazol-2-ylcarbamoyl)-ethyl]-benzene-sulfonyl}-(2-methoxy-ethyl)-amino]-propionic acid]: at recombinant GST-GK (setting [1]), the EC50 came out at 50000 nM. For the molecule `COCCN(CCC(=O)O)S(=O)(=O)c1ccc([C@H](CC2CCCC2)C(=O)Nc2nc3ccc(Cl)nc3s2)cc1` [Example 4-51, 3-[{4-[(S)-1-(5-Chloro-thiazolo[5,4-b]pyridin-2-ylcarbamoyl)-2-cyclopentyl-ethyl]-benzenesulfonyl}-(2-methoxy-ethyl)-amino]-propionic acid], the EC50 at recombinant GST-GK (setting [1]) turned out to be 44000 nM. Same read-out and setting: in the case of `COCCNC(=O)c1ccc2nc(NC(=O)[C@@H](CC3CCCC3)c3ccc(S(=O)(=O)N(CCOC)CCC(=O)O)cc3)sc2n1` [Example 4-60, 3-[(4-{(S)-2-Cyclopentyl-1-[5-(2-methoxy-ethylcarbamoyl)-thiazolo[5,4-b]pyridin-2-ylcarbamoyl]-ethyl}-benzenesulfonyl)-(2-methoxy-ethyl)-amino]-propionic acid] it was 6000 nM; in that of `COc1ccc2nc(NC(=O)C(CC3CCCC3)c3ccc(S(=O)(=O)N(CC(=O)O)Cc4ccco4)cc3)sc2n1` (stereo not drawn) [Example 4-9, ({4-[2-Cyclopentyl-1-(5-methoxy-thiazolo[5,4-b]pyridin-2-ylcarbamoyl)-ethyl]-benzenesulfonyl}-furan-2-ylmethyl-amino)-acetic acid], 2400 nM. The same measure, in the same setting: in the case of `COCCN(CCC(=O)O)S(=O)(=O)c1ccc(C(CC2CCCC2)C(=O)Nc2nc3cccnc3s2)cc1` (stereo not drawn) [Example 4-41, 3-[{4-[2-Cyclopentyl-1-(thiazolo[5,4-b]pyridin-2-ylcarbamoyl)-ethyl]-benzenesulfonyl}-(2-methoxy-ethyl)-amino]-propionic acid] it was 1200 nM; in that of `COCCN(CCC(=O)O)S(=O)(=O)c1ccc([C@@H](CC2CCCC2)C(=O)Nc2nc3ccc(SC)nc3s2)cc1` [Example 4-42, 3-[{4-[(R)-2-Cyclopentyl-1-(5-methylsulfanyl-thiazolo[5,4-b]pyridin-2-ylcarbamoyl)-ethyl]-benzenesulfonyl}-(2-methoxy-ethyl)-amino]-propionic acid], 230 nM. Still for that read-out and setting: in the case of `COCCOc1ccc2nc(NC(=O)[C@H](CC3CCCC3)c3ccc(S(=O)(=O)N(CCOC)CCC(=O)O)cc3)sc2n1` [Example 4-46, 3-[(4-{(R)-2-Cyclopentyl-1-[5-(2-methoxy-ethoxy)-thiazolo[5,4-b]pyridin-2-ylcarbamoyl]-ethyl}-benzenesulfonyl)-(2-methoxy-ethyl)-amino]-propionic acid] it was 220 nM.
